# Test results: ChEMBL document CHEMBL6153137, “Design, Synthesis, and Biological Evaluation of Novel Orally Available Covalent CDK12/13 Dual Inhibitors for the Treatment of Tumors” (J Med Chem, 2025)
# Calls of active or inactive are those of the source. No cut-off for these calls is given here.
# Assays:
# [1] = Half-life in Balb/c mouse xenografted with human MV4-11 cells at 30 mg/kg, po administered once daily via gavage; type: ADME, organism-based; conditions: in vivo
# [2] = Volume of distribution at steady state in CD-1 mouse at 1 mg/kg, iv measured for 24 hrs by LC-MS/MS analysis; type: ADME, organism-based; conditions: in vivo, read-out: Vdss
# MV4-11 = assay: Antiproliferative activity against human MV4-11 cells assessed as reduction in cell viability incubated for 7 days by CellTiter-Glo reagent based luminescence analysis; type: functional; conditions: MV4-11, 168 h
# HCC1395 = assay: Antiproliferative activity against human HCC1395 cells assessed as reduction in cell viability incubated for 7 days by CellTiter-Glo reagent based luminescence analysis; type: functional; conditions: HCC1395, 168 h
# [3] = molecular target: T1, Cyclin-dependent kinase 12/13 (Homo sapiens) (UniProt Q14004+Q9NYV4); assay: Inhibition of CDK12/13 in human SUM149PT cells assessed as reduction in level of phosphorylation of Ser2 on RNA Pol II CTD incubated for 24 hrs by western blot analysis; type: cell-based; conditions: dose 250-1000 nM
# [4] = molecular target: T1, Cyclin-dependent kinase 12/13 (Homo sapiens); assay: Inhibition of CDK12/13 in human SUM149PT cells assessed as reduction in level of phosphorylation of Ser2 on RNA Pol II CTD at 250 to 1000 nM by western blot analysis; type: cell-based; conditions: dose 250-1000 nM, time lower 1.0 hrs, time upper […]
# [5] = molecular target: Cyclin-dependent kinase 9 (Homo sapiens) (UniProt P50750); assay: Inhibition of CDK9 in human SUM149PT cells assessed as reduction in level of phosphorylation of Ser7 on RNA Pol II CTD at 500 nM incubated for 12 hrs followed by drug wash-out and measured after 72 hrs by western blot analysis; type: cell-based
# HEP Sf9 = assay: Inhibition of human recombinant N-terminal GST-tagged CDK4/C-terminal 6XHis-tagged Cyclin D3 S259A mutant expressed in HEP Sf9 cells using ATP as substrate at 2 uM measured after 60 mins by ADP-Glo reagent based luminescence assay
# [6] = molecular target: Cyclin-Y/Cyclin-dependent kinase 16 (Homo sapiens) (UniProt Q00536+Q8ND76); assay: Inhibition of human recombinant N-terminal GST-tagged CDK16/N-terminal GST-tagged Cyclin Y expressed in HEP Sf9 cells using ATP as substrate at 2 uM measured after 60 mins by ADP-Glo reagent based luminescence analysis
# [7] = Protein binding in mouse plasma assessed as free fraction at 400 uM incubated for 4 hrs by equilibrium dialysis method based LC-MS/MS analysis; type: ADME, cell-free
# Cytochrome P450 2C19 = Cytochrome P450 2C19 (Homo sapiens, UniProt P33261); assay: Inhibition of CYP2C19 in human liver microsomes assessed as inhibition of S-mephenytoin-4-hydroxylation incubated for 10 mins in presence of NADPH by LC-MS/MS analysis; type: ADME, Microsome
# SUM149PT = assay: Antitumor activity against human SUM149PT cells xenografted in Balb/c mouse assessed as inhibition of tumor growth at 30 mg/kg, po administered once daily via gavage and measured on day 20; type: functional; conditions: 480 h, time 20 day, read-out: TGI
# [8] = AUC in Balb/c mouse xenografted with human SUM149PT cells at 60 mg/kg, po administered once daily via gavage; type: ADME, organism-based; conditions: in vivo
# [9] = Ratio of drug level in tumor to plasma in Balb/c mouse xenografted with human SUM149PT cells at 60 mg/kg, po administered via gavage and measured after 2 hrs; type: ADME, organism-based
# [10] = AUC in Balb/c mouse xenografted with human MV4-11 cells at 30 mg/kg, po administered once daily via gavage; type: ADME, organism-based; conditions: in vivo
# Mus musculus = assay: In vivo inhibition of CDK12/13 in Balb/c mouse xenografted with human SUM149PT cells assessed as reduction in phosphorylation of Ser2 on RNA Pol II at 15 to 30 mg/kg, po administered once daily via gavage and measured at 4 hrs post-last drug dosage by western blot analysis; type: functional, organism-based; conditions: dose 15-30 mg/kg
# [11] = AUC (0 to infinity) in Sprague-Dawley rat at 50 mg/kg, po by LC-MS/MS analysis; type: ADME, organism-based; conditions: in vivo
# [12] = Oral bioavailability in Sprague-Dawley rat at 5 mg/kg measured for 24 hrs by LC-MS/MS analysis; type: ADME, organism-based; conditions: in vivo
# [13] = Toxicity against Sprague-Dawley rat assessed as abnormalities at 5 to 15 mg/kg, po measured for 24 hrs; type: organism-based; conditions: in vivo, dose 5-15 mg/kg
# [14] = Toxicity against male Sprague-Dawley rat assessed as hypersalivation at 40 mg/kg, po administered once daily via gavage for 28 days; type: organism-based; conditions: in vivo, 672 h, time 28 day
# [15] = Toxicity against male Sprague-Dawley rat assessed as effect on red blood cells level at 10 to 40 mg/kg, po administered once daily via gavage for 28 days and measured on day 29; type: organism-based; conditions: in vivo, 696 h, dose 10-40 mg/kg, time 29 day
# [16] = Toxicity against male Sprague-Dawley rat assessed as effect on monocytes level at 10 to 40 mg/kg, po administered once daily via gavage for 28 days and measured on day 29; type: organism-based; conditions: in vivo, 696 h, dose 10-40 mg/kg, time 29 day
# [17] = Toxicity against male Sprague-Dawley rat assessed as effect on hemoglobin level at 10 to 40 mg/kg, po administered once daily via gavage for 28 days and measured on day 29; type: organism-based; conditions: in vivo, 696 h, dose 10-40 mg/kg, time 29 day
# [18] = Toxicity against female Sprague-Dawley rat assessed as effect on mean corpuscular hemoglobin at 7.5 to 30 mg/kg, po administered once daily via gavage for 28 days and measured on day 29; type: organism-based; conditions: in vivo, 696 h, dose 7.5-30 mg/kg, time 29 day
# [19] = Toxicity against female Sprague-Dawley rat assessed as decrease in lymphocytes content at 7.5 to 30 mg/kg, po administered once daily via gavage for 28 days and measured on day 29; type: organism-based; conditions: in vivo, 696 h, dose 7.5-30 mg/kg, time 29 day
# [20] = Toxicity against male Sprague-Dawley rat assessed as effect on glucose level in blood at 10 to 40 mg/kg, po administered once daily via gavage for 28 days and measured on day 29; type: organism-based; conditions: in vivo, 696 h, dose 10-40 mg/kg, time 29 day
# [21] = Toxicity against male Sprague-Dawley rat assessed as effect on AST level in blood at 10 to 40 mg/kg, po administered once daily via gavage for 28 days and measured on day 29; type: organism-based; conditions: in vivo, 696 h, dose 10-40 mg/kg, time 29 day
# [22] = Toxicity against male Sprague-Dawley rat assessed as decrease in thymus volume at 10 to 40 mg/kg, po administered once daily via gavage for 28 days and measured on day 29; type: organism-based; conditions: in vivo, 696 h, dose 10-40 mg/kg, time 29 day
# [23] = Toxicity against male Sprague-Dawley rat assessed as decrease in thymus weight at 10 to 40 mg/kg, po administered once daily via gavage for 28 days and measured on day 29; type: organism-based; conditions: in vivo, 696 h, dose 10-40 mg/kg, time 29 day
# [24] = Toxicity against female Sprague-Dawley rat assessed as decrease in thymus weight at 7.5 to 30 mg/kg, po administered once daily via gavage for 28 days and measured on day 29; type: organism-based; conditions: in vivo, 696 h, dose 7.5-30 mg/kg, time 29 day
# [25] = Half life in male Sprague-Dawley rat at 40 mg/kg, po administered via gavage and measured on day 1; type: ADME, organism-based; conditions: in vivo, time 1 day
# [26] = Cmax in male Sprague-Dawley rat at 40 mg/kg, po administered via gavage and measured on day 1; type: ADME, organism-based; conditions: in vivo, time 1 day
# [27] = Cmax in female Sprague-Dawley rat at 30 mg/kg, po administered once daily via gavage for 28 days; type: ADME, organism-based; conditions: in vivo, time 28 day
# Chain of Cyclin-dependent kinase 9 (Homo sapiens) (P50750 whole entry): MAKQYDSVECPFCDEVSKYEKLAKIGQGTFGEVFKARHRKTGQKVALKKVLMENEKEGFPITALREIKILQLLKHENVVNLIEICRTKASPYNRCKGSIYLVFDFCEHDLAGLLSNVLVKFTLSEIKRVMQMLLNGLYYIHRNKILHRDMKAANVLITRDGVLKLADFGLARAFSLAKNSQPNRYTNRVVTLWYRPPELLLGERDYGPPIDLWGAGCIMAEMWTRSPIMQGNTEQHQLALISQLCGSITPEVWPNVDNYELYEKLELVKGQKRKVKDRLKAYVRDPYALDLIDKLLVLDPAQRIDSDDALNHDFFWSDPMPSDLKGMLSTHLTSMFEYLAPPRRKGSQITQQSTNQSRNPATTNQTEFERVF
# Chain of Cytochrome P450 2C19 (P33261 whole entry): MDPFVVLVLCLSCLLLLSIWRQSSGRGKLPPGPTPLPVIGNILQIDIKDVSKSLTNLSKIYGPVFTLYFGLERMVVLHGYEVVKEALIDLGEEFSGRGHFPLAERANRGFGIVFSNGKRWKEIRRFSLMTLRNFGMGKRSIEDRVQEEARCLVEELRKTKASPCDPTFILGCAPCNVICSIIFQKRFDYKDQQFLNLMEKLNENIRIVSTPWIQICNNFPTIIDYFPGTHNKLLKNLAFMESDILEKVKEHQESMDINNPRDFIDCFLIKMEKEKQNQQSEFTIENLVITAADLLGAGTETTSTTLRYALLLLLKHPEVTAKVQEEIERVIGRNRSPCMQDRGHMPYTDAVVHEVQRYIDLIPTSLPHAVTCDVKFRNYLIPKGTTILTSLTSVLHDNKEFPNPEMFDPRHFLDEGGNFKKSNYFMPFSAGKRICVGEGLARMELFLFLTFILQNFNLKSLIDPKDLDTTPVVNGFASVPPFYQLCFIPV
smiles,measurement,setting,value
C=CC(=O)N1CCc2c(ncnc2N2CC[C@@H](Nc3ncc(Cl)c(OC)n3)C2)C1,half-life,[1],1.17 h
same,Vd,[2],0.87 L/kg
same,IC50,MV4-11,84 nM
same,IC50,HCC1395,69 nM
same,inhibition,[3],Dose-dependent-effect
same,inhibition,[4],Time-dependent-effect
same,inhibition,[5],inactive
same,inhibition,HEP Sf9,68%
same,inhibition,[6],64%
same,"fraction unbound at 4 h, 400 µM",[7],0.075
same,IC50,Cytochrome P450 2C19,> 50000 nM
same,inhibition in vivo at 30 mg/kg,SUM149PT,101%
same,AUC,[8],4620 ng·h/mL
same,Kp at 2 h,[9],0.42
same,AUC,[10],4190 ng·h/mL
same,inhibition,Mus musculus,Active
same,AUC(0-inf),[11],6690 ng·h/mL
same,bioavailability,[12],35.7%
same,Activity,[13],Non-toxic
same,Activity,[14],Toxic
same,Activity,[15],Non-toxic
same,Activity,[16],Non-toxic
same,Activity,[17],Non-toxic
same,Activity,[18],Non-toxic
same,Activity,[19],Toxic
same,Activity,[20],Non-toxic
same,Activity,[21],Non-toxic
same,Activity,[22],Toxic
same,Activity,[23],Toxic
same,Activity,[24],Toxic
same,half-life,[25],6.2 h
same,Cmax,[26],1660 ng/mL
same,Cmax,[27],1690 ng/mL
